Data from ChEMBL document CHEMBL5584321, “Chemoenzymatic Synthesis of DNP-Functionalized FGFR1-Binding Peptides as Novel Peptidomimetic Immunotherapeutics for Treating Lung Cancer” (J Med Chem, 2024).
Active and inactive are the calls of the source. The calls are words filed in the database; no cut-off is given here. Where a SMILES comes first, the peptide text is derived from it. The star is where a group is joined. X1 = O=[N+]([O-])c1ccc(OCCOCCOCCOCCOCCOCCN*)c([N+](=O)[O-])c1

Key:
[1] = Half life in immunized Sprague-Dawley rat at 1.5 mg/kg,SC administration measured upto 24 hrs by fluorescence based microplate reader assay; type: ADME, organism-based; settings: in vivo
[2] = Cmax in immunized Sprague-Dawley rat at 1.5 mg/kg,SC administration measured upto 24 hrs by fluorescence based microplate reader assay; type: ADME, organism-based; settings: in vivo
L6 [3] = test: Induction of apoptosis in FGF2-induced rat L6 cells stably expressing human full-length FGFR1c assessed as upregulation of cleaved caspase-3 expression at 50 uM incubated for 24 hrs by Western blotting analysis; type: functional, cell-based
L6 [4] = test: Binding affinity to human full-length wild type FGFR1c stably expressed in rat L6 cells assessed as increase in fluorescence signal by antibody recruiting based flow cytometry; type: cell-based
NCI-H1581 [5] = test: Induction of cell lysis in human NCI-H1581 cells at 1 uM incubated for 1 hr by complement dependent cytotoxicity based CCK-8 assay relative to control; type: functional
[6] = Toxicity in BALB/c mouse xenografted with human NCI-H1581 cells assessed as cell necrosis in liver at 20 mg/kg,SC administrated once daily for 12 days by hematoxylin and eosin staining based analysis; type: organism-based; settings: in vivo, 288 h, time 12 day
[7] = Toxicity in BALB/c mouse xenografted with human NCI-H1581 cells assessed as cell necrosis in spleen at 20 mg/kg,SC administrated once daily for 12 days by hematoxylin and eosin staining based analysis; type: organism-based; settings: in vivo, 288 h, time 12 day
[8] = Toxicity in BALB/c mouse xenografted with human NCI-H1581 cells assessed as cell necrosis in lung at 20 mg/kg,SC administrated once daily for 12 days by hematoxylin and eosin staining based analysis; type: organism-based; settings: in vivo, 288 h, time 12 day
[9] = Toxicity in BALB/c mouse xenografted with human NCI-H1581 cells assessed as cell necrosis in kidney at 20 mg/kg,SC administrated once daily for 12 days by hematoxylin and eosin staining based analysis; type: organism-based; settings: in vivo, 288 h, time 12 day
NCI-H1581 [10] = test: Antitumor activity against human NCI-H1581 cells xenografted BALB/c mouse model assessed as tumor necrosis at 20 mg/kg,SC administrated once daily for 12 days by hematoxylin and eosin staining based analysis; type: functional, organism-based; settings: time 12.0 day

SMILES: CC(C)C[C@H](NC(=O)[C@H](C)NC(=O)[C@@H](NC(=O)[C@H](Cc1ccc(O)cc1)NC(=O)[C@H](Cc1c[nH]c2ccccc12)NC(=O)[C@H](CO)NC(=O)[C@H](CO)NC(=O)[C@H](Cc1ccc(O)cc1)NC(=O)[C@H](CCCCN)NC(=O)[C@H](CCCNC(=N)N)NC(=O)[C@H](CO)NC(=O)[C@H](CCCNC(=N)N)NC(=O)[C@@H](N)Cc1ccc(O)cc1)C(C)C)C(=O)N[C@@H](CCCCN)C(=O)N[C@@H](CCCNC(=N)N)C(=O)N[C@@H](CC(C)C)C(=O)N1CCC[C@H]1C(=O)N[C@@H](CCC(=O)O)C(=O)N[C@H](C(=O)NCC(=O)NCC(=O)NCC(=O)NCCOCCOCCOCCOCCOCCOc1ccc([N+](=O)[O-])cc1[N+](=O)[O-])[C@@H](C)O (H-YRSRKYSSWYVALKRLPETGGG-X1)
- half-life [1]: 18.1 h
- Cmax [2]: 273 ng/mL
- Activity (L6 [3]): Active
- Activity (L6 [4]): Dose-Dependent Effect
- Activity (NCI-H1581 [5]): 44.5%
- Activity [6]: Non-Toxic
- Activity [7]: Non-Toxic
- Activity [8]: Non-Toxic
- Activity [9]: Non-Toxic
- Activity (NCI-H1581 [10]): Active
